Where no end group is shown, it is not given here.

Experimental findings from patent US8361510B2, “Nanogels for cellular delivery of therapeutics” (Georgia Tech Research Corporation, priority 2008, dated 2013) are described below.

Assay type in all cases: cell-based
For series [1], the system named is Hey cells. Kind of series: Flow cytometry of nanogel binding/uptake. As to conditions: 0.8 mg/mL nanogels, four hours. The procedure:
Flow cytometry. Hey cells were plated at 2.5×10^5 cells/well in a 12-well, cell culture plate. Cells were allowed to adhere overnight in an incubator at 37° C. in a 5% CO2 atmosphere. Cells were washed, and fresh medium was added containing YSA-pNIPMAm or SCR-pNIPMAm nanogels at a concentration of 0.8 mg/mL and incubated for four hours. Following incubation, the cells were washed with PBS and removed from the plate by Trypsin-EDTA treatment. The cells were washed with PBS and fixed with 2% (v/v) paraformaldehyde. Cells were analyzed using a LSR Flow Cytometer (BD Biosciences). Data analysis was carried out using FlowJo software.
For orientation: Flow cytometry measures light scatter and fluorescence of single cells or particles in a stream.

In series [2] the test system is Hey cells. In words: Trypan blue exclusion assay. The procedure:
Toxicity Studies—Trypan blue exclusion assay. Hey cells were plated onto an 8-well chamber slide (1×10^4 cells/well) and allowed to adhere overnight at 37° C. and 5% CO2. The media was removed, the wells washed with PBS, and the medium replaced. PNIPMAm nanogels, YSA-conjugated nanogels, and SCR-conjugated nanogels were added to cells and incubated for 72 h. Untreated cells were used as controls. After 72 h, the cells washed with PBS, and a 1:1 solution of trypan blue was added to each well. After 1 min, the trypan blue was removed, the cells were washed with PBS, fixed with 2% (v/v) paraformaldehyde, and air dried. Each well was then viewed via bright field microscopy to determine the number of stained (dead) versus unstained cells. Five fields were viewed for each treatment.

The next series deals with EGFR. Kind of series: EGFR expression by immunoblotting in Hey cells. The conditions noted are these: Example 2. On the procedure: Immunoblotting. Hey cells were plated into 6-well plates (5×10^5/well) and allowed to adhere overnight at 37° C., 5% CO2. The cells were lysed with 100 μL of lysis buffer (50 mM Tris-HCl, pH 7.5, 150 mM NaCl, 2 mM EDTA (Fisher), 2 mM EGTA (Fisher), 1 mM sodium orthovanadate, 2.5 mM sodium pyrophosphate, 1 mM β-gycerolphosphate, 1 mM phenylmethanesulfonyl fluoride, 10 μg/mL aprotinin, 10 μg/mL leupeptin, 1% Triton X-100, and 5% glycerol), and the cell lysates sonicated four times for five seconds each. The lysates were cleared by centrifugation at 11,000×g rcf for […] at 4° C. Cell lysates were prepared for analysis by the addition of an equal volume of Laemmli 2× sample buffer. The samples were heated to 95° C. for […] to denature the proteins. The proteins were separated on a 10% SDS-PAGE gel and transferred onto nitrocellulose. The blots were blocked with either 5% nonfat dry milk (NFDM) or 5% bovine serum albumin (BSA) in 10 mM Tris-buffered saline, pH 7.5 plus 1% Tween 20 (TBST, BioRad) for 1 hour at room temperature. The blots were probed with anti-EGFR antibody (Cell Signaling, Danvers, Mass.; cat. no. 4405) or with a β-actin antibody (Millipore, Billerica, Mass.; Mab1501) diluted in 5% NFDM or 5% BSA overnight, with shaking at 4° C. For EphA2 detection, the blots were probed with an anti-EphA2 polyclonal antibody (Santa Cruz Biotechnology, Santa Cruz, Calif.; sc-294). The blots were washed three times with TBST and probed with goat anti-rabbit IgG (Santa Cruz, sc-2004) or with goat anti-mouse IgG (Santa Cruz, sc-2005) linked to horseradish peroxidase (HRP). Bands were visualized on film (Pierce) using the ECL reagent, SuperSignal West Pico™ (Pierce).
As described above, we chose siRNA targeting EGFR; knockdown of this receptor is non-lethal, but has clinical relevance in the treatment of drug resistant ovarian carcinomas. To determine if we could effectively knockdown EGFR in vitro, EGFR siRNA was encapsulated at a concentration of 16.6 μg of EGFR siRNA/mg of nanogels, using the loading technique described above. […]
On the technique in general: In western blotting, separated proteins are transferred to a membrane and probed.

Series [3] has as its system Hey cells. In words: Chemosensitization to docetaxel (Tox8), Hey cells. As to conditions: control treatments. The procedure:
Treatment with docetaxel. Hey or SK-OV-3 cells were plated in 96-well cell culture plates at a concentration of 1×10^4 cells/well. Hey or SK-OV-3 cells were subjected to nanogel delivery of siRNA at nanogel concentrations of 1000, 100, 10, and 1 μg/mL. Forty-eight hours after siRNA delivery, docetaxel was added to Hey or SK-OV-3 cells at concentrations ranging from 0.01-1000 nM. Treatment wells were set up in triplicate, and the cells were incubated with docetaxel for an additional 4 days. After treatment, the cells were washed with PBS, and 100 μL of medium was added back to the wells. To this, 10 μL of Tox8 was added to determine cell viability. The cells were incubated with the Tox8 reagent according to the manufacturer's instructions. The fluorescence was measured ([…]) by a Spectramax Gemini Fluorescence Microplate Reader (Molecular Devices, Sunnyvale, Calif.). Wells without cells but with Tox8 were used as controls and subtracted from all treatments as background. Each experiment was performed in duplicate.
Statistical analysis. Statistical analysis of the immunoblot data was performed using a non-parametric ANOVA (Kruskal Wallis) test. If significance was indicated, a Dunn's post-test was used to determine significance between groups. […]

Consider “SCR-conjugated nanogels: nanogels bearing the scrambled peptide DYPSMAMYSPSVC (SEQ ID NO 2), control (also: conjugated to nanogels) [reference compound]”, for which, in the series with Hey cells [1], the “cell fluorescence relative to cell autofluorescence” value is “only slightly greater than the cell autofluorescence background signal”. For the same substance, in the series on Hey cells [2], the “blue (dead) cells” value is given as “not observed”.

Turning to “YSAYPDSVPMMSC (listed as Homo sapiens) [YSA peptide]”, in the series on EGFR, the “EGFR expression of control treatments compared to untreated cells” value is reported as “diminished EGFR expression”. Moreover, the “sensitivity to docetaxel versus untreated controls” value in the series with Hey cells [3] is recorded as “increased sensitivity to docetaxel”.
